In US10017480B2, “Compounds having a selective PDE4D inhibiting activity” (UNIVERSITÂ DEGLI STUDI DI GENOVA, priority 2014, dated 2018):

Columns and labels:
[1] = molecular target: PDE4D1 (Homo sapiens, UniProt Q08499); experiment: PDE4D1 enzyme inhibition (IMAP); type: biochemical
[2] = molecular target: PDE4D2 (Homo sapiens, UniProt Q08499); experiment: PDE4D2 enzyme inhibition (IMAP); type: biochemical
[3] = molecular target: PDE4D3 (Homo sapiens, UniProt Q08499); experiment: PDE4D3 enzyme inhibition (IMAP); type: biochemical
Method: (§1) Compound's evaluation on PDE4D3, PDE4A4, PDE4B2 and PDE4C2 enzyme assays were performed by Scottish Biomedical (Glasgow, Scotland, UK) using recombinant human PDE enzymes expressed in a baculoviral system. The preliminary screening assays were performed by the IMAP technology (Molecular Devices), which is based on the high affinity binding of phosphate by immobilized metal coordination complexes on nanoparticles. The binding reagent complexes with phosphate groups on nucleotide monophosphate generated from cyclic nucleotides (cAMP) through phosphodiesterases. With fluorescence polarization detection, binding causes a change in the rate of the molecular motion of the phosphate bearing molecule and results in an increase in the fluorescence polarization value observed for the fluorescent label attached to the substrate. […] All compounds were solved in DMSO at 10^−2 M concentration and then diluted with water to the final suitable concentrations. All synthesized compounds were tested preliminary on PDE4D3 at 10^−5 M concentration, in duplicate. Results are expressed as a percent inhibition of control activity (see table 1).
IC50 values are reported at μM concentration in table 1. […] The results are reported (as percent of inhibition at 10 μM concentration) in Table 1.

[4] = molecular target: PDE4A4 (Homo sapiens, UniProt P27815); experiment: PDE4A4 enzyme inhibition (IMAP); type: biochemical; details: 10 μM
Method: as §1
(§2) The IC50 values obtained for the reference compounds are within accepted limits of historic averages obtained (0.5 log unit). IC50 values are reported at μM concentration in table 1. […] The results are reported (as percent of inhibition at 10 μM concentration) in Table 1.

[5] = molecular target: T1, PDE4B2 (Homo sapiens, UniProt Q07343); experiment: PDE4B2 enzyme inhibition (IMAP); type: biochemical; details: 10 μM
T1 construct: purchased Scottish Biomedical (Glasgow, Scotland, UK); host or cells: baculoviral system
Method: as §1, §2

[6] = molecular target: T2, PDE4C2 (Homo sapiens, UniProt Q08493); experiment: PDE4C2 enzyme inhibition (IMAP); type: biochemical
T2 construct: purchased Scottish Biomedical (Glasgow, Scotland, UK); host or cells: baculoviral system
Method: as §1, §2

[7] = Cytotoxicity, lactate-dehydrogenase release; type: cell-based; details: human, HTLA human neuronal cells
Method: To evaluate the preliminary toxic profile of the molecule XVIIIa, we performed cytotoxicity and genotoxicity assays on human neuronal cells (HTLA). For the cytotoxic potential, we analyzed the lactate-dehydrogenase release in cells exposed for 24 hours to high concentrations (100 μM) of XVIIIa or GEBR-7b (lead compound—Bruno et al, Br. J. Pharm., 2011, 164:2054).

[8] = tested on: HTLA cells; experiment: Genotoxicity, Western blot of γ-H2AX; type: cell-based, human; details: 100 μM
Excerpt: To evaluate the genotoxic potential of XVIIIa and GEBR-7b, we analyzed the phosphorylation of the chromatin-bound histone H2AX (γ-H2AX), which is a quantitative marker for the DNA damage response at the site of double-strand breaks.
The H2AX signal represents the internal loading control.

[9] = tested on: extracellular cAMP in the hippocampus of freely moving rats; experiment: In vivo cAMP-enhancing potential, intracerebral microdialysis
Method: The in vivo effects of XVIIIa on extracellular cAMP levels in the hippocampus of freely moving rats were analyzed by means of intracerebral microdialysis.
However, when the PDE4D inhibitor was infused at the concentration of 100 μM, a marked cAMP response could be observed (40-80% over basal values) as reported in FIG. 3. The effects of XVIIIa were similar to those previously reported for the PDE4D inhibitor GEBR-7b (lead compound; data taken from Bruno et al., Br. J. Pharmacol. 2011, 164, 2054-2063).
XVIIIa or GEBR-7b were administered through the probe after 3 consecutive control samples had been collected and were present in the infusion fluid for the time indicated by the horizontal empty bar. Data are expressed as percentages of the mean basal value (defined 100%) that was determined by averaging the cAMP content in the three fractions collected before drug treatment. Each point represents the mean±SEM for 3-6 different experiments.

[10] = tested on: hippocampal slices from Tg2576 mice and WT littermates; experiment: Electrophysiological study, LTP in hippocampal slices; details: 2 μM, bath, 20 minutes before theta burst stimulation
Method: Compound XVIIIa was tested to determine whether PDE4D inhibition can revert the damage of synaptic function following Aβ elevation in Tg2576 mice.
All experiments were performed with approval of the Columbia University IACUC Committe. The animals were 12 month old single transgenic mice expressing the human APP mutation (K670N,M671L) (a.k.a. Tg2576), as well as their WT littermates.
Slice recordings were performed as described previously (Trinchese et al, Ann Neurol 2004). Briefly, 400-μm slices were cut with a tissue chopper and maintained in an interface chamber at 29° C. for 90 minutes prior to recording. CA1 fEPSPs were recorded by placing both the stimulating and the recording electrodes in CA1 stratum radiatum. Basal synaptic transmission was assayed either by plotting the stimulus voltages against slopes of fEPSP. For LTP experiments, a 10-minute baseline was recorded every minute at an intensity that evokes a response approximately 35% of the maximum evoked response. Baseline was followed by a 20 minute perfusion with the compound prior to eliciting LTP using θ-burst stimulation (4 pulses at 100 Hz, with the bursts repeated at 5 Hz, and each tetanus including 3 ten-burst trains separated by 15 seconds). […]

[11] = tested on: forskolin (FSK)-induced cAMP in neuronal cultured cells; experiment: In vitro cAMP-enhancing potential (EIA); details: 100 μM
[12] = Pharmacokinetic analysis, plasma and brain
[13] = male, BALB/c, mouse, brain, sc, 10 mg/kg
[14] = male, BALB/c, mouse, plasma, sc, 10 mg/kg

Sequence of PDE4D3 (Q08499 1-673 isoform Q08499-2): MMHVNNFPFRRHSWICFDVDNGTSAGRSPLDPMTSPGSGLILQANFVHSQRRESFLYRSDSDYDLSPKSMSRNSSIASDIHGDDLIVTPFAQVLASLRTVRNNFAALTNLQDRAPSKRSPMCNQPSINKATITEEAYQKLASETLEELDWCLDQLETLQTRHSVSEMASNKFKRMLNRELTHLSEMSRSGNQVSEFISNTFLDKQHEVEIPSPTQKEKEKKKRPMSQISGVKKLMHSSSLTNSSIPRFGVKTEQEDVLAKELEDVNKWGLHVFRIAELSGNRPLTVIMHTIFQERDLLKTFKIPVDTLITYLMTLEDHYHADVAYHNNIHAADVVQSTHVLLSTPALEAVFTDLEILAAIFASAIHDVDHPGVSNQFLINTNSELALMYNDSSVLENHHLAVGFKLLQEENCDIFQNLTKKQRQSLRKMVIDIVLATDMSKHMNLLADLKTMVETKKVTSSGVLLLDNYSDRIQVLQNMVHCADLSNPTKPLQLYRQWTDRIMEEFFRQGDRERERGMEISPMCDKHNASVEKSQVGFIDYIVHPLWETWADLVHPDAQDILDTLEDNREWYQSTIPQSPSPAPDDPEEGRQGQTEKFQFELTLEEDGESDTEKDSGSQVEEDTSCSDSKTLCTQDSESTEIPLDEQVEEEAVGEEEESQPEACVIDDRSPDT
Sequence of PDE4A4 (P27815 whole entry): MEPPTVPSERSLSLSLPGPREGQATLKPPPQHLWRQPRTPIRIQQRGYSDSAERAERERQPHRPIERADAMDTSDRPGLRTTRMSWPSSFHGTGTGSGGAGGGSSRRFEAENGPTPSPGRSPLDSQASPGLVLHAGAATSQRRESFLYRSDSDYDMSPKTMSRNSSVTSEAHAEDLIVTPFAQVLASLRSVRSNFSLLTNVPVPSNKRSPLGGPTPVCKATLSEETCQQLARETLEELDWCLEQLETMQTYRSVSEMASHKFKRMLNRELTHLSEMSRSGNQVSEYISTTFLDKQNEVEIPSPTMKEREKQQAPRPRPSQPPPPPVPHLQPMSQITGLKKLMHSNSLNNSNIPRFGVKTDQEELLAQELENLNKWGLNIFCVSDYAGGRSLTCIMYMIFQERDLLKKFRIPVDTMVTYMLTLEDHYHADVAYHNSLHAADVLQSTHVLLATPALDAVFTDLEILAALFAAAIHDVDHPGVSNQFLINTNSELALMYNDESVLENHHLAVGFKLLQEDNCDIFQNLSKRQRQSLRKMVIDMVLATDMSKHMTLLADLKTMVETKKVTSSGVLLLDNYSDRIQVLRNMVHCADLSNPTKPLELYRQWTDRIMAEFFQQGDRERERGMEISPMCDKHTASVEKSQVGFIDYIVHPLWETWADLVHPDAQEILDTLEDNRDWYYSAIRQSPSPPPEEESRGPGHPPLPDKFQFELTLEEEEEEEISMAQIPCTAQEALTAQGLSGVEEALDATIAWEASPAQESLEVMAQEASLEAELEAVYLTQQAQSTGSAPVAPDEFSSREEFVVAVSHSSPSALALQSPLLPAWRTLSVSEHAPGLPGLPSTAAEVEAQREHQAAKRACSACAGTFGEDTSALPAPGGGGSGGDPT
Sequence of PDE4D2 (Q08499 303-809 limits assumed): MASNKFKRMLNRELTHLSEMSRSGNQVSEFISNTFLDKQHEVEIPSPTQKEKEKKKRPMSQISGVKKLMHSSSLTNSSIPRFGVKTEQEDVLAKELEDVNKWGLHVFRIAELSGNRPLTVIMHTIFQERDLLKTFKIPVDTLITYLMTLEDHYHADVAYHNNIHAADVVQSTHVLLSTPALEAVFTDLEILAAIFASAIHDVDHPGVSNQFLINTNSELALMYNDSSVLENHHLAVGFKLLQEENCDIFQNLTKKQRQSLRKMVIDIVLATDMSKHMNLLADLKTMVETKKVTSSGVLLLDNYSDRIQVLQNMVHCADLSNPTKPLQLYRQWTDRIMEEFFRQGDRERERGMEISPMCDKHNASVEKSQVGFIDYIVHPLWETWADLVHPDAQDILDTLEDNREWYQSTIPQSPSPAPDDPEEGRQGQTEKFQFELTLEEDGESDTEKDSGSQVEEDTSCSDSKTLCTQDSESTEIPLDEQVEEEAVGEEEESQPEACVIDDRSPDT
Sequence of PDE4D1 (Q08499 1-584 isoform Q08499-4): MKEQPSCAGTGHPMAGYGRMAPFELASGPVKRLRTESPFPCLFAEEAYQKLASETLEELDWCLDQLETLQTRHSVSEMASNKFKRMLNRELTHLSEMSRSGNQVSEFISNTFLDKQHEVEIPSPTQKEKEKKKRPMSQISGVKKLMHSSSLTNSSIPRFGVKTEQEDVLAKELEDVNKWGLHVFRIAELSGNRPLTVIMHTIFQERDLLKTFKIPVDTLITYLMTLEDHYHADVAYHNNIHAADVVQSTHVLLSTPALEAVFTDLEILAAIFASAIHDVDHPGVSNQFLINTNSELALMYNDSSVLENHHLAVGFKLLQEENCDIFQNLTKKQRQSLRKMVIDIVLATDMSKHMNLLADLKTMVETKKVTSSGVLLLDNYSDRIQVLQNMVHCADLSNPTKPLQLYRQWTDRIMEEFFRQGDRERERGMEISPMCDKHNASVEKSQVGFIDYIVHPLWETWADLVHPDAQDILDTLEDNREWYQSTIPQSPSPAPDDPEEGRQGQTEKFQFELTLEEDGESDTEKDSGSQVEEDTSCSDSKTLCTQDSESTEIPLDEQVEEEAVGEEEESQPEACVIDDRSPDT
T2 sequence (Q08493 107-712): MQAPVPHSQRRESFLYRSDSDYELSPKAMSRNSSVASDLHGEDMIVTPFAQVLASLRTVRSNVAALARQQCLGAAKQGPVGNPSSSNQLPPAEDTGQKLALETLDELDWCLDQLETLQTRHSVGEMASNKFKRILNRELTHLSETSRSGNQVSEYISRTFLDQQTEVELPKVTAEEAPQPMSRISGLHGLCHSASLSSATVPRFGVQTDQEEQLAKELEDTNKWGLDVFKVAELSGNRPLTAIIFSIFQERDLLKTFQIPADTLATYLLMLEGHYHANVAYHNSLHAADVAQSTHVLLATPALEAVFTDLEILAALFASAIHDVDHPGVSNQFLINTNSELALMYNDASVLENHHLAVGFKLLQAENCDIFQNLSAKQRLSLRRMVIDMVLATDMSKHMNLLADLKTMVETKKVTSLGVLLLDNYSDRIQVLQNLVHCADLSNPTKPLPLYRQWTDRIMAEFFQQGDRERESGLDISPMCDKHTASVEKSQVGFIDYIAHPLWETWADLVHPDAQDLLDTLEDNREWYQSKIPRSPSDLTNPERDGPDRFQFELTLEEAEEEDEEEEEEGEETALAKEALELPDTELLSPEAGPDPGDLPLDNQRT
T1 sequence (Q07343 1-564 isoform Q07343-2): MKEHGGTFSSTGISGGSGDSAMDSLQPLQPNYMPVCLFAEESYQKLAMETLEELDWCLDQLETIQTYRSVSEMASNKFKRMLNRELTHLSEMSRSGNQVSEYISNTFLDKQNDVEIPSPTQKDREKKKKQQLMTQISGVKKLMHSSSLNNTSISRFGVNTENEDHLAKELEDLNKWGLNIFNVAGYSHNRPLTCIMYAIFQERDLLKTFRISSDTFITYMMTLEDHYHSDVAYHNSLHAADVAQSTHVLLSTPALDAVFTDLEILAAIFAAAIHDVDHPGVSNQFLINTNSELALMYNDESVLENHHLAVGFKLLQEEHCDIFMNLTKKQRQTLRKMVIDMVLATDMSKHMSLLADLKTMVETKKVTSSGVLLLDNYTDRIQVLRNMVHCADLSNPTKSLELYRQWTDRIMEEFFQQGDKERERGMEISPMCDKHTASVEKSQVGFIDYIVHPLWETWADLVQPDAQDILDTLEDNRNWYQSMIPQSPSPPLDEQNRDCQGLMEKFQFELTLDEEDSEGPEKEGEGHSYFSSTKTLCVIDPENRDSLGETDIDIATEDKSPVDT

**Q.** Which results are given for `COc1ccc(-c2ccn(CC(O)CN3CCOCC3)n2)cc1OC1CCCC1` (stereo not drawn) [XVIIIa, 1-{3-[3-(Cyclopentyloxy)-4-methoxyphenyl]-1H-pyrazol-1-yl}-3-morpholin-4-ylpropan-2-ol dihydrocloride]?
**A.** PDE4D1 % inib at 10 μM [1]: 34%; PDE4D2 % inib at 10 μM [2]: 28%; PDE4D3 % inib at 10 μM ([3]; 10 μM, in duplicate): 68%; IC50 ([3]; five concentrations 10^−8-10^−4 M): 7.6 µM; PDE4A4 % inib at 10 μM [4]: 22%; PDE4B2 % inib at 10 μM [5]: 18%; PDE4C2 % inib at 10 μM [6]: 11%; cytotoxicity at 24 h, 100 µM [7]: 3.3 ± 0.4%; DNA damage (γ-H2AX) [8]: not observed; hippocampal extracellular cAMP ([9]; 30 μM by reverse dialysis): slight, though not significant, increase; hippocampal extracellular cAMP response ([9]; 100 μM infused): 40-80 % over basal values; LTP in WT littermates [10]: without affecting LTP; LTP in hippocampal slices from 12 month-old Tg mice [10]: rescued the defect in LTP; accumulation of forskolin (FSK)-induced cAMP, fold induction ([11]; 10 min pre-treatment, then 1 μM FSK 20 min): 3 fold; basal cAMP levels ([11]; without FSK): without affecting the basal cAMP levels; AUC0-t ([12]; brain, male BALB/c mice, 10 mg/kg subcutaneously): 812 ng·h/g; Cmax [12, 13]: 936 ng/g; Tmax [12, 13]: 10.2 min; half-life [12, 13]: 32.4 min; Kp ([12]; male, BALB/c, mouse, in vivo, sc, 10 mg/kg): 0.75; AUC0-t [12, 14]: 1890 ng·h/mL; Cmax [12, 14]: 2160 ng/mL; Tmax [12, 14]: 10.2 min; half-life [12, 14]: 49.2 min
